Experimental data from US11944624B2, “Peptide and small molecule agonists of EphA and their uses” (CASE WESTERN RESERVE UNIVERSITY, priority 2017, dated 2024).
Entries after “also recorded” stand apart in the source; their conditions may differ.

What was measured:
[1] = target: EphA2 (Homo sapiens, UniProt P29317); assay: EphA2 activation in MDA-231-A2 cells (pEphA/B immunoblot); assay type: cell-based; design: expressed in transfected cells; host or cells: MDA-MB-231 (MDA-231-A2 / MDA-MB-231-A2), puromycin selected; EphA2 activation in compound screen: dose or concentration left out as unconfirmed
Chain of EphA2 (P29317 24-976): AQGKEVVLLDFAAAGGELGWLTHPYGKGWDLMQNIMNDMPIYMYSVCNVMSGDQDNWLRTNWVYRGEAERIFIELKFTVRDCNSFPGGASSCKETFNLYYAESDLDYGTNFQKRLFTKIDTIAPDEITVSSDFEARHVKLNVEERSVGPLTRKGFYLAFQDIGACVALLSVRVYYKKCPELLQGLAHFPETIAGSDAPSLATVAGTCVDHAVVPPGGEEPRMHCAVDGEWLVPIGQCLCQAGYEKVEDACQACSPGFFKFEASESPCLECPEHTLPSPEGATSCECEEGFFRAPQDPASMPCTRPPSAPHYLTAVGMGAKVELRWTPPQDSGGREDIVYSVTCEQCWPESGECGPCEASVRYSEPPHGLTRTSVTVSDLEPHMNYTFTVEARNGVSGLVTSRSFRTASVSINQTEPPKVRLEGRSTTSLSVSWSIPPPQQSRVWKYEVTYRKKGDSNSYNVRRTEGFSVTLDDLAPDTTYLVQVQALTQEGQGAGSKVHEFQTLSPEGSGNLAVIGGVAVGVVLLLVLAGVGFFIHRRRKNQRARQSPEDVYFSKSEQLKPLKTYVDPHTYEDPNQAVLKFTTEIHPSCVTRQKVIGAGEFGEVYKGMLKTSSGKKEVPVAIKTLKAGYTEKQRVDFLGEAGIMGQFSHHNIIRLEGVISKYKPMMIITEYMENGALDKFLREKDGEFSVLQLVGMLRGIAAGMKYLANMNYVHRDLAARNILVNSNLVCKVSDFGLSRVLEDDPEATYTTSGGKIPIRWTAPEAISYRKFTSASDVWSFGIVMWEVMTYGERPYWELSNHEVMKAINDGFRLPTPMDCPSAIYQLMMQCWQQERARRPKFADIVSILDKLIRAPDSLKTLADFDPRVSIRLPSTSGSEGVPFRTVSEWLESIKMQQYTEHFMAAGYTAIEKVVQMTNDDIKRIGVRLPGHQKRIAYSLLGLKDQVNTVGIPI
Protocol: Cells were plated in 24-well dishes at a density of 100,000 cells/well and grown for 24 hours prior to stimulation with appropriate compounds and ephrins for the given amounts of time. Compounds were prepared in DMSO at 500 times the final concentrations and 0.2% DMSO was used as vehicle control. Following treatment, cells were lysed directly in SDS Gel Loading Buffer and immunoblotted as described previously. Immunoprecipitation and immunofluorescence staining was performed as described. For immunoprecipitation, 300,000 cells/well were plated in 6-well dishes and lysed in modified RIPA Buffer (20 mM Tris-HCl pH 7.4, 20 mM NaF, 150 mM NaCl, 10% glycerol, 0.1% SDS, 0.5% DCA, 2 mM EDTA, 1% Triton X-100) following treatment. Either 10 μg of ephrin-A1-Fc, or […] of EphA2 mouse monoclonal antibody (Clone D7, Millipore) were used, and mouse IgG was used as a negative control for EphA2 IP. To identify small molecule agonists for EphA2, we took a structure-based in silico screening approach. […] This notion was confirmed recently by determination of the crystal structure of the EphA2/ephrin-A1 complex (FIG. 1B). The size falls in the range of common drugs, making EphA2 LBD a desirable target for drug discovery. Toward this end, we initiated in silico screening to search for small molecules that interact favorably with the ligand-binding pocket of EphA2 derived from molecular modeling before the crystal structure became available. Multiple conformations for each structure were generated with OMEGA (OpenEye) and each conformation was docked individually using DOCK. Our initial screening of over 750,000 compounds identified a number of small molecules that could potentially interact with the ligand-binding pocket. The commercially available top-scoring compounds were screened for their ability to induce EphA2 activation in MDAMB-231 breast cancer cells. Because MDA-MB-231 cells express endogenous EphA2 as well as other Eph receptors, including EphA1, we overexpressed EphA2 in order to minimize the contribution from other Eph receptors in our analysis. […] Total cell lysates were probed with a previously described antibody that recognizes the activated Eph receptors. […] Originally developed as an antagonist for α1-adrenoreceptor, doxazosin (FIG. 1D) is an FDA-approved drug (CARDURA) for treating hypertension and benign prostate hyperplasia (BPH). To confirm specific EphA2 activation by doxazosin, we analyzed levels of activated Eph receptor in MDA-231-A2 cells following treatment with multiple doses of doxazosin and EphA2 immunoprecipitation.

[2] = test system: ERK and Akt activities; assay: ERK and Akt activities in LK133A-Vec cells (EphA2 knockout); assay type: cell-based, mice
Protocol: Cells were plated in 24-well dishes at a density of 100,000 cells/well and grown for 24 hours prior to stimulation with appropriate compounds and ephrins for the given amounts of time. Compounds were prepared in DMSO at 500 times the final concentrations and 0.2% DMSO was used as vehicle control. Following treatment, cells were lysed directly in SDS Gel Loading Buffer and immunoblotted as described previously. Immunoprecipitation and immunofluorescence staining was performed as described. For immunoprecipitation, 300,000 cells/well were plated in 6-well dishes and lysed in modified RIPA Buffer (20 mM Tris-HCl pH 7.4, 20 mM NaF, 150 mM NaCl, 10% glycerol, 0.1% SDS, 0.5% DCA, 2 mM EDTA, 1% Triton X-100) following treatment. Either 10 μg of ephrin-A1-Fc, or […] of EphA2 mouse monoclonal antibody (Clone D7, Millipore) were used, and mouse IgG was used as a negative control for EphA2 IP.
To address this question, we utilized an immortalized liver epithelial cell line, LK133A, isolated from a hepatoma induced by DEN in EphA2 knockout mice. Retroviral vector was used to restore EphA2 expression in these cells (LK133A-A2), and cells transduced with an empty vector were used as control (LK133AVec).

[3] = target: T1, EphA4 (Homo sapiens, UniProt P54764); assay: EphA4 activation in HEK 293 cells overexpressing EphA4; assay type: cell-based; conditions: HEK 293 overexpressing EphA4, 60 minutes
T1 construct: expressed in transfected cells; host or cells: HEK 293
T1 sequence (P54764 20-986, species assumed): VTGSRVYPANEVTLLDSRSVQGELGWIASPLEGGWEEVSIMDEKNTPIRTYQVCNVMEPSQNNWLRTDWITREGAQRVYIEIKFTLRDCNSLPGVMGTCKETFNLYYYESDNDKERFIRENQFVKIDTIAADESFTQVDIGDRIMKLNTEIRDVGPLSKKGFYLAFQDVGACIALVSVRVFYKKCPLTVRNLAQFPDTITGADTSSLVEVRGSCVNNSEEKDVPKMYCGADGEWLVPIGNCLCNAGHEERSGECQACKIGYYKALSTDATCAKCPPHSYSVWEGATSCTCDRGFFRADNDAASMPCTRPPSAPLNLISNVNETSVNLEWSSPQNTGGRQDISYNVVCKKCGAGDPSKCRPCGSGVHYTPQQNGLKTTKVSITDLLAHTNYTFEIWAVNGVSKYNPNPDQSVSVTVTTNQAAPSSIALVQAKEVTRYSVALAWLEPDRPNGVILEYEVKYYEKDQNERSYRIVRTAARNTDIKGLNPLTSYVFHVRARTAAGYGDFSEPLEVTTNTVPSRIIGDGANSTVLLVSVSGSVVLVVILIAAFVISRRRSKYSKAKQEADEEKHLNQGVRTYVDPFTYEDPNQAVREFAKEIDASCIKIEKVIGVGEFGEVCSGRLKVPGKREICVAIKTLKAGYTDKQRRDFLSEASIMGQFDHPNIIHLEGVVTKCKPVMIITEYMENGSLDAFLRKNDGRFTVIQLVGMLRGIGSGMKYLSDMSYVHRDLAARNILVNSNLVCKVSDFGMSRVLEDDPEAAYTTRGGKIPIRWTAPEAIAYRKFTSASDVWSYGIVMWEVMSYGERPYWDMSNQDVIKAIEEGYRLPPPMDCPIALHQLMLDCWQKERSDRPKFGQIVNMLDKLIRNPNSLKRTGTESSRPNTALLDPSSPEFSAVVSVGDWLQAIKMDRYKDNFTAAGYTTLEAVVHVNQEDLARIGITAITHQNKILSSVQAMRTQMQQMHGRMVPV
Protocol: Cells were plated in 24-well dishes at a density of 100,000 cells/well and grown for 24 hours prior to stimulation with appropriate compounds and ephrins for the given amounts of time. Compounds were prepared in DMSO at 500 times the final concentrations and 0.2% DMSO was used as vehicle control. Following treatment, cells were lysed directly in SDS Gel Loading Buffer and immunoblotted as described previously. […] For immunoprecipitation, 300,000 cells/well were plated in 6-well dishes and lysed in modified RIPA Buffer (20 mM Tris-HCl pH 7.4, 20 mM NaF, 150 mM NaCl, 10% glycerol, 0.1% SDS, 0.5% DCA, 2 mM EDTA, 1% Triton X-100) following treatment. Either 10 μg of ephrin-A1-Fc, or 4 mg of EphA2 mouse monoclonal antibody (Clone D7, Millipore) were used, and mouse IgG was used as a negative control for EphA2 IP. […] For this purpose, HEK 293 cell lines overexpressing EphA1, EphA2, EphA3, EphA4, and EphB3 kinases were utilized.

[4] = test system: PC3-DAB2IP KD cells; assay: In vivo metastasis assay, orthotopic PC3-DAB2IP KD xenograft
Protocol: PC-3 cells (from ATCC) engineered to express both GFP and DAB2IP shRNA were characterized previously. Cells were suspended in serum free medium and 2,000 cells injected directly into the prostate glands of 7 week old NCr athymic nu/nu mice. Three days after injection, mice were divided into two groups, one receiving vehicle alone (5% DMSO/10% Cremophor/PBS) and another 50 mg/kg doxazosin via intraperitoneal injection daily for 10 days. Mice were sacrificed 14 days later and intact primary tumors were imaged under a UV light box with a Digital camera. Lungs were dissected into separate lobes and GFP-expressing metastases were imaged using an inverted fluorescent microscope (Leica). Metastases were enumerated in the two largest lung lobes and placed into size categories based upon their diameters, measured in number of cells (1-10 cells). Total metastatic burden was calculated in each mouse using the following equation: [burden=Σ (# of foci×focus diameter)].
We took advantage of this newly established model system to test how doxazosin can affect metastasis of prostate cancer. To this end, PC3-DAB2IP KD cells were injected orthotopically into the prostate glands of nude mice. Three days later, recipient mice were subject to systemic treatment by daily i.p. injection of either vehicle control, or 50 mg/kg doxazosin for 10 days. Since these cells also expressed green fluorescent protein (GFP), freshly dissected primary tumors could be readily visualized in a GFP light box (FIG. 7A top panels), and distal metastases to lungs and lymph nodes could be observed and quantified under a fluorescent microscope (FIG. 7A lower panels).
Next, we determined whether doxazosin treatment might impact overall survival. Nude mice orthotopically implanted with the PC3-DAP2IP KD cells were treated for 10 days with either doxazosin, or vehicle control and monitored for survival.

[5] = MDA-231-A2 cells, single 50 μM dose
[6] = 50 mg/kg i.p. daily for 10 days, versus vehicle

## COc1cc2nc(N3CCN(C(=O)C4COc5ccccc5O4)CC3)nc(N)c2cc1OC (stereo not drawn) [Doxazosin, 2-[4-(2,3-Dihydro-1,4-benzodioxine-2-carbonyl)piperazin-1-yl]-6,7-dimethoxyquinazolin-4-amine]
[1]; MDA-231-A2 cells pretreated with 1 μM phenoxybenzamine
  EphA2 activation after phenoxybenzamine pretreatment versus no pretreatment: No difference in EphA2 activation
[1]; MDA-231-A2 cells, high doses
  EphA2 degradation: degradation of EphA2 following exposure to high doses of doxazosin
[1]; [5]
  earliest time of significant EphA2 activation: 5 min
  time of peak EphA2 activation: around 30 min
[1]; MDA-231-A2 cells, total cell lysates
  EphA2 activation in compound screen: activated EphA2 to the greatest extent
[2]
  effect on ERK and Akt activities in absence of EphA2: neither doxazosin nor ephrin-A1-Fc was able to inhibit ERK and Akt activities; also recorded: notable increase in ERK and Akt activation
[3]
  EphA4 kinase activation: activated both EphA2 and EphA4 kinases following a similar dose-response relationship
[4]; 50 mg/kg i.p. daily for 10 days
  side effects: no notable side effects
[4]; [6]
  body weight: no changes in body weight
  number of lung metastases: significant reduction in the number of lung metastases
  primary tumor sizes: difference was not statistically significant
  sizes of lung metastases: significantly smaller
  total metastatic burden: even more significantly reduced
  tumor cell dissemination to local lymph nodes: reduced, but not to a significant extent
[4]; 27 days after cell implantation, treated 10 days, vehicle 30%
  overall survival: 70%
